The subject of one series is Oral Lichen Planus. The note with it: cited from earlier work.
A short description of series [1]: Rapamycin stability in solution. It counts as physicochemical. To be noted: known concentration solutions at 37° C. for 24 hours. On the procedure: Rapamycin stability was evaluated by sampling known concentration solutions at 37° C. for 24 hours.

`CO[C@H]1C[C@@H]2CC[C@@H](C)[C@@](O)(O2)C(=O)C(=O)N2CCCC[C@H]2C(=O)O[C@H]([C@H](C)C[C@@H]2CC[C@@H](O)[C@H](OC)C2)CC(=O)[C@H](C)/C=C(\C)[C@@H](O)[C@@H](OC)C(=O)[C@H](C)C[C@H](C)/C=C/C=C/C=C/1C` [Rapamycin]: in the series on Oral Lichen Planus (direct topical application to the diseased regions), the “Local side effect after first application” value is “tingling or burning sensations were encountered”. In the series on Oral Lichen Planus (direct topical application), the Blood levels entry is reported as “negligible” and the Systemic adverse effects entry is given as “no systemic adverse effects were encountered”. Also, the Rapamycin stability result in series [1] was “No stability problems were observed”.
